According to ChEMBL document CHEMBL5634076, “Optimization of pyridylpiperazine-based inhibitors of the Escherichia coli AcrAB-TolC efflux pump” (Eur J Med Chem, 2023):
≈ marks a conversion by molar mass, not a printed value.

Assays:
[1] = system: Escherichia coli; experiment: Selectivity ratio of EC90 for inhibition of AcrB Asp951Asn mutant in Escherichia coli BW25113 to inhibition of AcrB in Escherichia coli BW25113 incubated for 20 hrs by resazurin microtitre assay
[2] = Solubility of compound in PBS at pH 7.4 incubated for 24 hrs by LC-MS/MS analysis; assay type: physicochemical
[3] = system: Escherichia coli; experiment: Potentiation of linezolid induced antibacterial activity in Escherichia coli BW25113 assessed as fold change in linezolid MIC at 100 uM incubated for 20 hrs by resazurin microtitre assay; assay type: functional
[4] = system: Escherichia coli; experiment: Potentiation of ciprofloxacin induced antibacterial activity in Escherichia coli BW25113 assessed as ciprofloxacin MIC at 100 uM incubated for 20 hrs by resazurin microtitre assay (reference value: 0.01 ug/ml); assay type: functional
[5] = system: Escherichia coli; experiment: Potentiation of fusidic acid induced antibacterial activity in Escherichia coli BW25113 assessed as fusidic acid MIC at 100 uM incubated for 20 hrs by resazurin microtitre assay (Rvb > 128 ug/ml); assay type: functional
[6] = system: Escherichia coli; experiment: Selectivity ratio of EC90 for inhibition of AcrB Glu947Gln mutant in Escherichia coli BW25113 to inhibition of AcrB in Escherichia coli BW25113 incubated for 20 hrs by resazurin microtitre assay
[7] = system: Escherichia coli; experiment: Antibacterial activity against Escherichia coli BW25113 assessed as reduction in bacterial growth incubated for 20 hrs by resazurin microtitre assay; assay type: functional
[8] = system: Escherichia coli; experiment: Potentiation of novobiocin induced antibacterial activity in Escherichia coli BW25113 assessed as fold change in novobiocin MIC at 100 uM incubated for 20 hrs by resazurin microtitre assay; assay type: functional
[9] = molecular target: T1, Multidrug efflux pump subunit AcrB (Escherichia coli (strain K12)) (UniProt P31224); experiment: Potency index, ratio of BDM88832 EC90 to test compound EC90 for inhibition of AcrAB-TolC in Escherichia coli BW25113
T1 sequence (whole entry): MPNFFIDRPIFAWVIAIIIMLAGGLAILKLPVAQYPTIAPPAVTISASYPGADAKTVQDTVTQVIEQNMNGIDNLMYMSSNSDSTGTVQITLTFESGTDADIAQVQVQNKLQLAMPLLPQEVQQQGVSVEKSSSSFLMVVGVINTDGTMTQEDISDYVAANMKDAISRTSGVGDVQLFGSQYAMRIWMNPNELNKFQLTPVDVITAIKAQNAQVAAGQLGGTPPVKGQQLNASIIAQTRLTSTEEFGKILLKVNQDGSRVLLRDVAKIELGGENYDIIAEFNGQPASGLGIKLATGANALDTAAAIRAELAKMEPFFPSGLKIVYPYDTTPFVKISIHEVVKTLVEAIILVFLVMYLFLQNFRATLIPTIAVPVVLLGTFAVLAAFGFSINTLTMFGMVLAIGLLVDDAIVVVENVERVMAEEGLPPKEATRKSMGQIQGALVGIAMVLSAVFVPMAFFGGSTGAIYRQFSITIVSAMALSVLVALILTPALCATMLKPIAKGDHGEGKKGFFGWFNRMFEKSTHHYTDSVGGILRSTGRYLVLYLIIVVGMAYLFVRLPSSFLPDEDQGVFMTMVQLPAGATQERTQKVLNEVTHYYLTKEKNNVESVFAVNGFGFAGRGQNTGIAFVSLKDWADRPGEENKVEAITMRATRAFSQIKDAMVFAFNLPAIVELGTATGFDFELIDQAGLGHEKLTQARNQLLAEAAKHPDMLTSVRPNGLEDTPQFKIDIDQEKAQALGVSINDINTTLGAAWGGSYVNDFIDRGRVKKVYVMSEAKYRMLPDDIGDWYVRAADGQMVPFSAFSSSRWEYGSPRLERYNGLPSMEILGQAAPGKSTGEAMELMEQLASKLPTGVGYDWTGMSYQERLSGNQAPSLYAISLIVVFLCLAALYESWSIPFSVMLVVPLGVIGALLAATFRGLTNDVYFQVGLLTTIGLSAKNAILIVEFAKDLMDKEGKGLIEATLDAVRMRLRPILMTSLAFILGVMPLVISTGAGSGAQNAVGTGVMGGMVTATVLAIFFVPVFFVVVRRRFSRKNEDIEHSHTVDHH

[10] = system: Escherichia coli; experiment: Potentiation of erythromycin induced antibacterial activity in Escherichia coli BW25113 assessed as erythromycin MIC at 100 uM incubated for 20 hrs by resazurin microtitre assay (reference value: 128 ug/ml); assay type: functional
[11] = molecular target: T1, Multidrug efflux pump subunit AcrB (Escherichia coli (strain K12)); experiment: Inhibition of AcrB in Escherichia coli BW25113 assessed as potentiation of pyridomycin-induced antibacterial activity incubated for 20 hrs by resazurin microtitre assay
[12] = system: Escherichia coli; experiment: Potentiation of piperacillin induced antibacterial activity in Escherichia coli BW25113 assessed as fold change in piperacillin MIC at 100 uM incubated for 20 hrs by resazurin microtitre assay; assay type: functional
[13] = system: Escherichia coli; experiment: Potentiation of oxacillin induced antibacterial activity in Escherichia coli BW25113 assessed as fold change in oxacillin MIC at 100 uM incubated for 20 hrs by resazurin microtitre assay; assay type: functional
[14] = system: Escherichia coli; experiment: Potentiation of erythromycin induced antibacterial activity in Escherichia coli BW25113 assessed as fold change in erythromycin MIC at 100 uM incubated for 20 hrs by resazurin microtitre assay; assay type: functional
[15] = system: Escherichia coli; experiment: Inhibition of AcrB Glu947Gln mutant in Escherichia coli BW25113 assessed as potentiation of pyridomycin-induced antibacterial activity incubated for 20 hrs by resazurin microtitre assay
[16] = system: Escherichia coli; experiment: Potentiation of chloramphenicol induced antibacterial activity in Escherichia coli BW25113 assessed as fold change in chloramphenicol MIC at 100 uM incubated for 20 hrs by resazurin microtitre assay; assay type: functional
[17] = system: Escherichia coli; experiment: Inhibition of AcrB Asp951Asn mutant in Escherichia coli BW25113 assessed as potentiation of pyridomycin-induced antibacterial activity incubated for 20 hrs by resazurin microtitre assay
[18] = system: Escherichia coli; experiment: Potentiation of ciprofloxacin induced antibacterial activity in Escherichia coli BW25113 assessed as fold change in ciprofloxacin MIC at 100 uM incubated for 20 hrs by resazurin microtitre assay; assay type: functional
[19] = system: Escherichia coli; experiment: Inhibition of AcrB Ser450Pro mutant in Escherichia coli BW25113 assessed as potentiation of pyridomycin-induced antibacterial activity incubated for 20 hrs by resazurin microtitre assay
[20] = system: Escherichia coli; experiment: Potentiation of linezolid induced antibacterial activity in Escherichia coli BW25113 assessed as linezolid MIC at 100 uM incubated for 20 hrs by resazurin microtitre assay (Rvb > 128 ug/ml); assay type: functional
[21] = system: Escherichia coli; experiment: Potentiation of oxacillin induced antibacterial activity in Escherichia coli BW25113 assessed as oxacillin MIC at 100 uM incubated for 20 hrs by resazurin microtitre assay (Rvb > 128 ug/ml); assay type: functional
[22] = system: Escherichia coli; experiment: Potentiation of fusidic acid induced antibacterial activity in Escherichia coli BW25113 assessed as fold change in fusidic acid MIC at 100 uM incubated for 20 hrs by resazurin microtitre assay; assay type: functional
[23] = system: Escherichia coli; experiment: Inhibition of AcrB Ala446Pro mutant in Escherichia coli BW25113 assessed as potentiation of pyridomycin-induced antibacterial activity incubated for 20 hrs by resazurin microtitre assay
[24] = system: Escherichia coli; experiment: Potentiation of piperacillin induced antibacterial activity in Escherichia coli BW25113 assessed as piperacillin MIC at 100 uM incubated for 20 hrs by resazurin microtitre assay (reference value: 4 ug/ml); assay type: functional
[25] = system: Escherichia coli; experiment: Potentiation of novobiocin induced antibacterial activity in Escherichia coli BW25113 assessed as novobiocin MIC at 100 uM incubated for 20 hrs by resazurin microtitre assay (reference value: 80 ug/ml); assay type: functional
[26] = system: Escherichia coli; experiment: Potentiation of chloramphenicol induced antibacterial activity in Escherichia coli BW25113 assessed as chloramphenicol MIC at 100 uM incubated for 20 hrs by resazurin microtitre assay (reference value: 8 ug/ml); assay type: functional
[27] = Stability in CD-1 mouse liver microsomes assessed as intrinsic clearance at 1 uM measured up to 40 mins by LC-MS/MS analysis; assay type: ADME, Microsome; conditions: read-out: CLH
[28] = Stability in mouse plasma assessed as half life at 10 uM measured up to 360 mins by LC-MS/MS analysis; assay type: ADME, cell-free
[29] = Stability in CD-1 mouse liver microsomes assessed as half life at 1 uM measured up to 40 mins by LC-MS/MS analysis; assay type: ADME, Microsome
[30] = Solubility of compound in DMSO at > 125 uM; assay type: physicochemical
[31] = system: Escherichia coli; experiment: Antibacterial activity against Escherichia coli BW25113 harboring acrB deletion mutant assessed as reduction in bacterial growth incubated for 20 hrs by resazurin microtitre assay; assay type: functional
[32] = molecular target: T1, Multidrug efflux pump subunit AcrB (Escherichia coli (strain K12)); experiment: Inhibition of AcrB in Escherichia coli BW25113 assessed as potentiation of pyridomycin-induced antibacterial activity incubated for 5 hrs by resazurin reduction assay
[33] = system: Escherichia coli; experiment: Antibacterial activity against Escherichia coli BW25113 assessed as reduction in bacterial growth incubated for 5 hrs by resazurin reduction assay; assay type: functional

| Structure (SMILES) | Ratio [1] | solubility at 24 h [2] | fold change (FC) [3] | MIC95 [4] | MIC95 [5] | Ratio [6] | MIC [7] | fold change (FC) [8] | MIC95 [10] | EC90 [11] | fold change (FC) [12] | fold change (FC) [13] | fold change (FC) [14] | EC90 [15] | fold change (FC) [16] | EC90 [17] | fold change (FC) [18] | EC90 [19] | MIC95 [20] | MIC95 [21] | other results |
| --- | --- | --- | --- | --- | --- | --- | --- | --- | --- | --- | --- | --- | --- | --- | --- | --- | --- | --- | --- | --- | --- |
| Cl.Cl.NCc1cccc(OC(=O)c2cnc(N3CCNCC3)c(Cl)c2)c1 | 103 | 180 µM | >16 | < 0.005 µg/mL | 5 µg/mL | > 103 | > 250 µM | 64 | 4 µg/mL | 0.6 µM | >8 | >26 | 32 | > 62 µM | 4 | 62 µM | >2 | > 62 µM | 8 µg/mL | 5 µg/mL | Ratio [9]: 20; fold change (FC) [22]: >26; EC90 [23]: > 62 µM; MIC95 [24]: < 0.5 µg/mL; MIC95 [25]: 1.2 µg/mL; MIC95 [26]: 2 µg/mL |
| Cl.Cl.NCCc1nc(-c2cnc(N3CCNCC3)c(Cl)c2)no1 | > 31 | > 200 µM | 8 | < 0.005 µg/mL | 32 µg/mL | > 31 | > 250 µM | 8 | 16 µg/mL | 8 µM | >8 | 3 | 8 | > 250 µM | 4 | > 250 µM | >2 | > 250 µM | 16 µg/mL | 40 µg/mL | fold change (FC) [22]: 4; EC90 [23]: > 250 µM; MIC95 [24]: < 0.5 µg/mL; microsomal CLint at 1 µM [27]: < 2 µL/min/mg; half-life at 10 µM [28]: > 6 h; MIC95 [25]: 10 µg/mL; MIC95 [26]: 2 µg/mL; half-life at 1 µM [29]: > 0.667 h |
| Cc1noc(-c2cnc(N3CCNCC3)c(Cl)c2)n1.Cl | – | – | – | – | – | – | > 125 µM | – | – | > 125 µM | – | – | – | – | – | – | – | – | – | – | solubility [30]: Soluble |
| CC/C(C)=C1\OC(=O)[C@H](C)[C@H](O)[C@H](Cc2cccnc2)NC(=O)[C@@H](NC(=O)c2ncccc2O)[C@@H](C)OC1=O [PYRIDOMYCIN] | – | – | – | – | – | – | 12.5 µg/mL | – | – | – | – | – | – | – | – | – | – | – | – | – | MIC [31]: 0.78 µg/mL (≈ 1.44 µM) |
| FC(F)(F)c1cnc(N2CCNCC2)c(Cl)c1 | – | – | – | – | – | – | > 250 µM | – | – | – | – | – | – | – | – | – | – | – | – | – | EC90 [32]: 62 µM; MIC90 [33]: > 500 µM |
